Results on 18 compounds are retold here after patent publication US20260022118A1, “HETEROCYCLIC COMPOUNDS AS NRAS INHIBITORS” (Board of Regents, The University of Texas System, priority 2023, published 2026).

The first test has as its system THP-1 cells expressing G12D (NRAS G12D). Description: Inhibition of NRAS G12D-mediated phosphorylation of ERK (AlphaLISA p-ERK1/2) in THP-1 cells. The note with it: 2 hours incubation, HBSS with 0% or 10% FBS, p-ERK1/2 (Thr202/Tyr204) AlphaLISA, read-out: pERK THP-1 IC50. Format: cell-based. How it is done: Inhibition of NRAS G12D-Mediated Phosphorylation of ERK by Exemplary Compounds of Formulas I, II, and III.
This Example illustrates that exemplary compounds and salts thereof described herein inhibit the phosphorylation of ERK downstream of NRAS G12D.
THP-1 cells (ATCC TIB-202) expressing G12D were maintained in RPMI-1640 medium supplemented with 10% fetal bovine serum (FBS), 0.05 mM 2-mercaptoethanol, and penicillin/streptomycin. Cells (20,000/well) were seeded onto a 384 well plate in 20 μL of HBSS supplemented with 0% or 10% FBS. Cells were incubated in the absence or presence of various concentrations of test compound (final 1% DMSO) for 2 hours. p-ERK expression was assessed using the AlphaLISA SureFire Ultra p-ERK1/2 (Thr202/Tyr204) (PerkinElmer®, ALSU-PERK-A10K) following manufacturer recommendation. Plates were read on a PerkinElmer® Envision Multimode plate reader. Dose-response curves were analyzed using IC50 regression curve fitting (GeneData Screener). Curves were plotted as a percent control and normalized by high controls without inhibitor (100%), and low controls (0%) containing 1 μM of trametinib, a potent MEK inhibitor.
With `C#Cc1c(F)ccc2cc(O)cc(-c3ncc4c([C@H]5[C@@H]6CN[C@@H](C(=O)OC)[C@@H]65)nn(C)c4c3F)c12` (racemic) [Example 47, methyl rac-(2R,6S)-6-[6-(8-ethynyl-7-fluoro-3-hydroxy-1-naphthyl)-7-fluoro-1-methyl-pyrazolo[4,3-c]pyridin-3-yl]-3-azabicyclo[3.1.0]hexane-2-carboxylate], the IC50 stood at 116 nM.

`C#Cc1c(F)ccc2cc(O)cc(-c3ncc4c([C@H]5[C@@H]6CN[C@@H](C(=O)OC)[C@@H]65)nn(C)c4c3F)c12` (racemic) [Example 48, methyl rac-(2R,6S)-6-[6-(8-ethynyl-7-fluoro-3-hydroxy-1-naphthyl)-7-fluoro-1-methyl-pyrazolo[4,3-c]pyridin-3-yl]-3-azabicyclo[3.1.0]hexane-2-carboxylate]: the 50% inhibitory concentration (IC50) is 6470 nM.

The same test, now with this note: Homo sapiens, THP-1, 2 h, 2 hours incubation, HBSS with 0% or 10% FBS, p-ERK1/2 (Thr202/Tyr204) AlphaLISA, read-out: pERK THP-1 IC50.
On to `C#Cc1c(F)ccc2cc(O)cc(-c3nc(N(C)C)c4c([C@H]5[C@@H]6CNC[C@@H]65)nn(C5CC5)c4c3F)c12` [Example 78, 4-(3-((1R,5S,6r)-3-azabicyclo[3.1.0]hexan-6-yl)-1-cyclopropyl-4-(dimethylamino)-7-fluoro-1H-pyrazolo[4,3-c]pyridin-6-yl)-5-ethynyl-6-fluoronaphthalen-2-ol], for which the IC50 stood at 89.2 nM.

With `C#Cc1c(F)ccc2cc(O)cc(-c3ncc4c(C5[C@H]6CNC[C@@H]56)nn5c4c3OCC5)c12` (stereo partly drawn) [Example 94, 4-[3-[(1S,5R)-3-azabicyclo[3.1.0]hexan-6-yl]-9-oxa-1,2,6-triazatricyclo[6.3.1.04,12]dodeca-2,4,6,8(12)-tetraen-7-yl]-5-ethynyl-6-fluoro-naphthalen-2-ol], the IC50 was above 10000 nM.

Consider `C#Cc1c(F)ccc2cc(O)cc(-c3nc(N(C)CC)c4c([C@H]5[C@@H]6CNC[C@@H]65)nn(C5CC5)c4c3F)c12` [Example 81, 4-(3-((1R,5S,6r)-3-azabicyclo[3.1.0]hexan-6-yl)-1-cyclopropyl-4-(ethyl(methyl)amino)-7-fluoro-1H-pyrazolo[4,3-c]pyridin-6-yl)-5-ethynyl-6-fluoronaphthalen-2-ol], for which the IC50 came to 74.6 nM.

For the compound `C#Cc1c(F)ccc2cc(O)cc(-c3ncc4c(N5C[C@@H]6CNC[C@@H]65)nn(C5CC5)c4c3F)c12` [Example 37, 4-[1-cyclopropyl-3-[(1S,5R)-3,6-diazabicyclo[3.2.0]heptan-6-yl]-7-fluoro-pyrazolo[4,3-c]pyridin-6-yl]-5-ethynyl-6-fluoro-naphthalen-2-ol], the IC50 was found to be 6670 nM.

In the case of `C#Cc1c(F)ccc2cc(O)cc(-c3nc(C(F)(F)F)c4c([C@H]5[C@@H]6CNC[C@@H]65)nn(C5CC5)c4c3F)c12` [Example 55, 4-[3-(3-azabicyclo[3.1.0]hexan-6-yl)-1-cyclopropyl-7-fluoro-4-(trifluoromethyl)pyrazolo[4,3-c]pyridin-6-yl]-5-ethynyl-6-fluoro-naphthalen-2-ol], the IC50 was 499 nM.

Regarding `C#Cc1c(F)ccc2cc(O)cc(-c3nc(C(=C)C)c4c(N5C[C@@H]6CC[C@H]5CN6)nn(C5CC5)c4c3F)c12` [Example 89, 4-(3-((1S,4S)-2,5-diazabicyclo[2.2.2]octan-2-yl)-1-cyclopropyl-7-fluoro-4-(prop-1-en-2-yl)-1H-pyrazolo[4,3-c]pyridin-6-yl)-5-ethynyl-6-fluoronaphthalen-2-ol], the IC50 is 3730 nM.

Take `C#Cc1c(F)ccc2cc(O)cc(-c3nc(Cc4ccccc4)c4c([C@H]5[C@@H]6CNC[C@@H]65)nn(C5CC5)c4c3F)c12` [Example 52, 4-[3-(3-azabicyclo[3.1.0]hexan-6-yl)-4-benzyl-1-cyclopropyl-7-fluoro-pyrazolo[4,3-c]pyridin-6-yl]-5-ethynyl-6-fluoro-naphthalen-2-ol]: the IC50 stood at 3890 nM.

Regarding `C#Cc1c(F)ccc2cc(O)cc(-c3nc(C(=C)C)c4c([C@H]5[C@@H]6CNC[C@@H]65)nn(C5CC5)c4c3F)c12` [Example 53, 4-(3-((1R,5S,6r)-3-azabicyclo[3.1.0]hexan-6-yl)-1-cyclopropyl-7-fluoro-4-(prop-1-en-2-yl)-1H-pyrazolo[4,3-c]pyridin-6-yl)-5-ethynyl-6-fluoronaphthalen-2-ol], the 50% inhibitory concentration (IC50) came to 5.81 nM.

As for `C#Cc1c(F)ccc2cc(O)cc(-c3nc(C(C)(C)O)c4c([C@H]5[C@@H]6CNC[C@@H]65)nn(C5CC5)c4c3F)c12` [Example 56, 4-[3-(3-azabicyclo[3.1.0]hexan-6-yl)-1-cyclopropyl-7-fluoro-4-(1-hydroxy-1-methyl-ethyl)pyrazolo[4,3-c]pyridin-6-yl]-5-ethynyl-6-fluoro-naphthalen-2-ol], the 50% inhibitory concentration (IC50) is 152 nM.

Take `C#Cc1c(F)ccc2cc(O)cc(-c3nc(N(C)C)c4c(N5C[C@H]6CC[C@@H]5CN6)nn(C5CC5)c4c3F)c12` (stereo in doubt) [Example 92, 4-(3-((1R,4R)-2,5-diazabicyclo[2.2.2]octan-2-yl)-1-cyclopropyl-4-(dimethylamino)-7-fluoro-1H-pyrazolo[4,3-c]pyridin-6-yl)-5-ethynyl-6-fluoronaphthalen-2-ol]: the IC50 is above 10000 nM.

For `C#Cc1c(F)ccc2cc(O)cc(-c3ncc4c(C5C(=O)C6CCC5CN6)nn(C)c4c3F)c12` (stereo not drawn) [Example 41, 5-[6-(8-ethynyl-7-fluoro-3-hydroxy-1-naphthyl)-7-fluoro-1-methyl-pyrazolo[4,3-c]pyridin-3-yl]-2-azabicyclo[2.2.2]octan-6-one], the IC50 is above 10000 nM.

`C#Cc1c(F)ccc2cc(O)cc(-c3nc(CCC#N)c4c([C@H]5[C@@H]6CNC[C@@H]65)nn(C5CC5)c4c3F)c12` [Example 50, 3-[3-(3-azabicyclo[3.1.0]hexan-6-yl)-1-cyclopropyl-6-(8-ethynyl-7-fluoro-3-hydroxy-1-naphthyl)-7-fluoro-pyrazolo[4,3-c]pyridin-4-yl]propanenitrile]: the IC50 was determined as 490 nM.

In the case of `C#Cc1c(F)ccc2cc(O)cc(-c3nc(N(CC)CC)c4c([C@H]5[C@@H]6CNC[C@@H]65)nn(C5CC5)c4c3F)c12` [Example 80, 4-(3-((1R,5S,6r)-3-azabicyclo[3.1.0]hexan-6-yl)-1-cyclopropyl-4-(diethylamino)-7-fluoro-1H-pyrazolo[4,3-c]pyridin-6-yl)-5-ethynyl-6-fluoronaphthalen-2-ol], the IC50 is 126 nM.

As for `C#Cc1c(F)ccc2cc(O)cc(-c3ncc4c(NCCN)nn(C)c4c3F)c12` [Example 93, 4-(3-((2-aminoethyl)amino)-7-fluoro-1-methyl-1H-pyrazolo[4,3-c]pyridin-6-yl)-5-ethynyl-6-fluoronaphthalen-2-ol], the half-inhibitory concentration (IC50) turned out to be 9260 nM.

Regarding `C#Cc1c(F)ccc2cc(O)cc(-c3ncc4c(C5CC6CCC5CN6)nn(C)c4c3F)c12` (stereo not drawn) [Example 43, 4-[3-(2-azabicyclo[2.2.2]octan-5-yl)-7-fluoro-1-methyl-pyrazolo[4,3-c]pyridin-6-yl]-5-ethynyl-6-fluoro-naphthalen-2-ol], the 50% inhibitory concentration (IC50) is above 10000 nM.

Take `C#Cc1c(F)ccc2cc(O)cc(-c3nc(C(C)=O)c4c([C@H]5[C@@H]6CNC[C@@H]65)nn(C5CC5)c4c3F)c12` [Example 84, 1-(3-((1R,5S,6r)-3-azabicyclo[3.1.0]hexan-6-yl)-1-cyclopropyl-6-(8-ethynyl-7-fluoro-3-hydroxynaphthalen-1-yl)-7-fluoro-1H-pyrazolo[4,3-c]pyridin-4-yl)ethan-1-one]: the 50% inhibitory concentration (IC50) was determined as 458 nM.

Usually IC50 stands for the concentration needed to halve the response being measured.
